Measured values from patent EP1803452A1, “ESTER DERIVATIVE AND PHARMACEUTICAL USE THEREOF” (Japan Tobacco, Inc., priority 2004, dated 2006).

Columns and labels:
[1] = Metabolic stability test in liver S9; type: in vitro ADME; settings: pH 7.4, human liver S9 2 mg protein/mL, LC/MS; for remaining at 10 min: unchanged form after 10 minutes at 37°C, read-out: Remaining rate in human liver S9 (%/10min); for remaining at 1 h: unchanged form after 60 minutes at 37°C, read-out: Remaining rate in human liver S9 (%/60min)
Procedure: Human liver S9 (final concentration: 2 mg protein/mL), was suspended in 100 mM potassium phosphate buffer (pH 7.4, containing β-nicotinamide adenine dinucleotide phosphate: 1.3 mM, D-glucose-6- phosphate: 3.3 mM, magnesium chloride: 3.3 mM, glucose-6-phosphate dehydrogenase:0.4 U/mL). The suspension was mixed with a solution of a sample dissolved in DMSO. The solution was incubated at 37°C for 0, 10 and 60 minutes, and an acetonitrile containing formic acid (final concentration: 0.1%) was added thereto. The solutions were centrifuged, and the concentration of the sample (unchanged form) in the supernatant was determined by high performance liquid chromatography/mass spectrometry (LC/MS). Based on the data obtained, remaining rate (%) was calculated according to the following equation. Remaining rate(%) = amount of sample 0,10, or 60 minutes after [formula] incubation/amount of sample at zero time after incubation × 100 [formula]
(§1) With respect to the compounds obtained in Working Examples according to the present invention (Compounds 1-1 to 1-115, 2-1, 3-1, 3-2, and 4-1 to 4-4), the results of the remaining rate in human liver S9 and plasma are shown in Tables 28 to 32.

[2] = Stability test in buffer (pH 7.4); type: physicochemical; settings: phosphate buffer/acetonitrile 7:3, 100 mM potassium phosphate buffer (pH 7.4) and acetonitrile 7:3 (v/v), LC/MS; for remaining at 10 min: 10 minutes at 37°C, read-out: Buf. remaining rate (%/10min); for remaining at 1 h: 60 minutes at 37°C, read-out: Buf. remaining rate (%/60min)
Procedure: In the tables, Buf. remaining rate was determined by stability test in buffer (pH 7.4) as described below. A sample dissolved in DMSO was mixed with a mixed solution of 100 mM potassium phosphate buffer and acetonitrile in the ratio of 7:3 (v/v). The mixture was incubated at 37°C for 0, 10, and 60 minutes, and acetonitrile containing formic acid (final concentration: 0.1%) was added thereto. The solution was centrifuged, and the concentration of the sample (unchanged form) in the supernatant was determined by high performance liquid chromatography/mass spectrometry (LC/MS). Based on the data obtained, Buf. remaining rate (%) was calculated according to the following equation. Buf.remaining rate(%) = amount of sample 0,10, or 60 minutes after incubation/amount of sample at zero time after incubation × 100 [formula]

[3] = Metabolic stability test in plasma; type: in vitro ADME, human; settings: LC/MS; for remaining at 10 min: unchanged form after 10 minutes at 37°C in human plasma, read-out: Remaining rate in human plasma (%/10min); for remaining at 1 h: unchanged form after 60 minutes at 37°C in human plasma, read-out: Remaining rate in human plasma (%/60min)
Procedure: A sample dissolved in DMSO was added to plasma of human or animal species (mouse and hamster). The solutions were incubated at 37°C for 0, 10 and 60 minutes, and acetonitrile containing formic acid (final concentration: 0.1%) was added thereto. The solutions were centrifuged, and the concentration of the sample (unchanged form) in the supernatant was determined by high performance liquid chromatography/mass spectrometry (LC/MS). Based on the data obtained, the remaining rate (%) was calculated according to the following equation. Remaining rate(%) = amount of sample 0,10, or 60 minutes after incubation/amount of sample at zero time after incubation × 100 [formula]
as §1

Row | Compound | remaining at 10 min [1] [%] | remaining at 1 h [1] [%] | remaining at 10 min [2] [%] | remaining at 1 h [2] [%] | remaining at 10 min [3] [%] | remaining at 1 h [3] [%]
1 | CN(C)C(=O)c1cc(CCCC(=O)Oc2ccc(C(=O)OCC(=O)OCc3ccccc3)cc2)ccc1NC(=O)c1ccccc1-c1ccc(C(F)(F)F)cc1 [Compound 1-78, 4-[4-(3-dimethylcarbamoyl-4-{(4'-trifluoromethylbiphenyl-2-carbonyl)amino}phenyl)butyryloxy]benzoic acid benzyloxycarbonylmethyl ester] | 10 | 2 | 97 | 97 | 51 | 2
2 | CN(C)C(=O)c1cc(CCC(=O)Oc2ccccc2)ccc1NC(=O)c1ccccc1-c1ccc(C(F)(F)F)cc1 [Compound 1-1, 3-{3-dimethylcarbamoyl-4-[(4'-trifluoromethylbiphenyl-2-carbonyl)amino]phenyl}propionic acid phenyl ester] | 0 | 0 | 101 | 104 | 80 | 40
3 | CC(=O)NCCOC(=O)c1ccc(OC(=O)CCCc2ccc(NC(=O)c3ccccc3-c3ccc(C(F)(F)F)cc3)c(C(=O)N(C)C)c2)cc1 [Compound 1-77, 4-[4-(3-dimethylcarbamoyl-4-{(4'-trifluoromethylbiphenyl-2-carbonyl)amino}phenyl)butyryloxy]benzoic acid 2-acetylaminoethyl ester] | 0 | 0 | 99 | 100 | 59 | 2
4 | COC(=O)c1ccc(OC(=O)CCCc2ccc(NC(=O)c3ccccc3-c3ccc(C(F)(F)F)cc3)c(C(=O)N(C)C)c2)cc1 [Compound 1-5, 4-(4-(3-dimethylcarbamoyl-4-[(4'-trifluoromethylbiphenyl-2-carbonyl)amino]phenyl}butyryloxy)benzoic acid methyl ester] | 0 | 0 | 100 | 101 | 11 | 0
5 | Cc1cccc(COC(=O)c2ccc(OC(=O)CCCc3ccc(NC(=O)c4ccccc4-c4ccc(C(F)(F)F)cc4)c(C(=O)N(C)C)c3)cc2)n1 [Compound 1-101, 4-[4-(3-dimethylcarbamoyl-4-{(4'-trifluoromethylbiphenyl-2-carbonyl)amino}phenyl)butyryloxy]benzoic acid 6-methylpyridin-2-ylmethyl ester] | 3 | 0 | 100 | 103 | 42 | 0
6 | Cc1ccc(C(=O)Nc2ccc(CCCC(=O)Oc3ccc(C(=O)OCc4ccccc4)cc3)cc2C(=O)N(C)C)c(-c2ccc(C(F)(F)F)cc2)n1 [Compound 1-80, 4-[4-(3-dimethylcarbamoyl-4-{[6-methyl-2-(4-trifluoromethylphenyl)pyridine-3-carbonyl]amino}phenyl)butyryloxy]benzoic acid benzyl ester] | 5 | 0 | 100 | 101 | 4 | 0
7 | CC(C)OC(=O)c1ccc(OC(=O)CCCc2ccc(NC(=O)c3ccccc3-c3ccc(C(F)(F)F)cc3)c(C(=O)N(C)C)c2)cc1 [Compound 1-7, 4-(4-{3-dimethylcarbamoyl-4-[(4'-trifluoromethylbiphenyl-2-carbonyl)amino]phenyl}butyryloxy)benzoic acid isopropyl ester] | 0 | 0 | 98 | 98 | 60 | 0
8 | COC(=O)c1cc(C)c(OC(=O)CCCc2ccc(NC(=O)c3ccccc3-c3ccc(C(F)(F)F)cc3)c(C(=O)N(C)C)c2)c(Cl)c1 [Compound 1-34, 3-chloro-4-(4-{3-dimethylcarbamoyl-4-[(4'-trifluoromethylbiphenyl-2-carbonyl)amino]phenyl}butyryloxy)-5-methylbenzoic acid methyl ester] | 16 | 4 | 98 | 103 | 52 | 0
9 | CN(C)C(=O)c1cc(CCCC(=O)Oc2ccc(C(=O)OCc3cccs3)cc2)ccc1NC(=O)c1ccccc1-c1ccc(C(F)(F)F)cc1 [Compound 1-98, 4-[4-(3-dimethylcarbamoyl-4-{(4'-trifluoromethylbiphenyl-2-carbonyl)amino}phenyl)butyryloxy]benzoic acid thiophen-2-ylmethyl ester] | 6 | 0 | 101 | 99 | 5 | 0

More lines, now with the values ahead:

Row | remaining at 10 min [1] [%] | remaining at 1 h [1] [%] | remaining at 10 min [2] [%] | remaining at 1 h [2] [%] | remaining at 10 min [3] [%] | remaining at 1 h [3] [%] | Compound
10 | 11 | 2 | 101 | 102 | 0 | 0 | COc1cc(C(=O)OC(C)C)cc(F)c1OC(=O)CCCc1ccc(NC(=O)c2ccc(C)nc2-c2ccc(C(F)(F)F)cc2)c(C(=O)N(C)C)c1 [Compound 1-38, 4-[4-(3-dimethylcarbamoyl-4-{[6-methyl-2-(4-trifluoromethylphenyl)pyridine-3-carbonyl]amino}phenyl)butyryloxy]-3-fluoro-5-methoxybenzoic acid isopropyl ester]
11 | 0 | 0 | 99 | 101 | 25 | 0 | COC(=O)c1ccc(-c2nc(C)ccc2C(=O)Nc2ccc(CCCC(=O)Oc3c(C)cc(C(=O)OC)cc3Cl)cc2C(=O)N(C)C)cc1 [Compound 4-1, 3-chloro-4-[4-(3-dimethylcarbamoyl-4-{[2-(4-methoxycarbonylphenyl)-6-methylpyridine-3-carbonyl]amino}phenyl)butyryloxy]-5-methylbenzoic acid methyl ester]
12 | 8 | 2 | 103 | 104 | 1 | 0 | COc1cc(C(=O)OCC(=O)N(C)C)cc(Cl)c1OC(=O)CCCc1ccc(NC(=O)c2ccc(C)nc2-c2ccc(C(F)(F)F)cc2)c(C(=O)N(C)C)c1 [Compound 1-113, 3-chloro-4-[4-(3-dimethylcarbamoyl-4-{[6-methyl-2-(4-trifluoromethylphenyl)pyridine-3-carbonyl]amino}phenyl)butyryloxy]-5-methoxybenzoic acid dimethylcarbamoylmethyl ester]
13 | 2 | 0 | 98 | 97 | 34 | 0 | COC(=O)c1ccc(-c2nc(C)ccc2C(=O)Nc2ccc(CCCC(=O)Oc3c(C)cc(C(=O)OC)cc3C(=O)OC)cc2C(=O)N(C)C)cc1 [Compound 4-2, 4-[4-(3-dimethylcarbamoyl-4-{[2-(4-methoxycarbonylphenyl)-6-methylpyridine-3-carbonyl]amino}phenyl)butyryloxy]-5-methylisophthalic acid dimethyl ester]
14 | 41 | 3 | 99 | 99 | 30 | 0 | COC(=O)c1cc(C(=O)OC(C)C)cc(C)c1OC(=O)CCCc1ccc(NC(=O)c2ccc(C)nc2-c2ccc(C(F)(F)F)cc2)c(C(=O)N(C)C)c1 [Compound 1-111, 4-[4-(3-dimethylcarbamoyl-4-{[6-methyl-2-(4-trifluoromethylphenyl)pyridine-3-carbonyl]amino}phenyl)butyryloxy]-5-methylisophthalic acid 1-isopropyl ester 3-methyl ester]
